Test results: US8827946B2 (Shin Nippon Biomedical Laboratories, Ltd., priority 2009, dated 2014)
Read-outs that look alike come from different tables or passages of the source.

Test: Phase 1 clinical study, pharmacokinetics of granisetron after intravenous and intranasal administration
Format: in vivo, human
Description: This was an open-label safety and PK study conducted at a single site in which healthy volunteers, at weekly intervals, were given the reference intravenous dose, followed by three single escalating nasal doses of TRG at weekly intervals.
Subjects received one intravenous dose of Kytril® (10 μg/kg) followed by three escalating single doses of TRG. There was a 7 day washout period between each dose.
The following PK parameters were tested: AUC0-last (ng·h/mL), AUCinf (ng·h/mL), Tmax (hours), Cmax (ng/mL), T1/2 (hours), clearance, and volume of distribution. No efficacy variables were assessed in this safety and PK study.
The PK parameters T1/2, Tmax, Cmax, AUC0-last, and AUCinf were calculated by using noncompartmental analysis. Values for Tmax and Cmax were reported as the observed values. Terminal elimination rate constants (λz) were determined by log-linear regression of the terminal portion of the concentration-time curves (FIG. 8). Values for T1/2 were calculated as (ln 2)/λz, and AUC0-last was determined by the linear trapezoidal method. AUCinf was calculated as the sum of AUC0-last and Clast/λz where Clast is the last measurable concentration. The absolute bioavailability (F) was calculated for each subject by the dose-corrected AUCinf intranasal divided by AUCinf intravenous. Apparent clearance and volume of distribution were also calculated. To determine the relationship between pharmacokinetic parameters (Cmax, AUClast, and AUC0-∞) and dosage, a multiple regression analysis was performed with log-transformed values. For other pharmacokinetic parameters, analysis of variance (ANOVA) using the mixed effect model was performed to compare between groups.

[1] = human, plasma, 10 ug/kg, intravenous 10 μg/kg (Kytril), healthy male volunteers, mean, N=8
[2] = human, plasma, inhaled or intranasal, intranasal 0.5 mg (TRG capsule, single nostril), healthy male volunteers, mean
[3] = human, plasma, inhaled or intranasal, intranasal 1.0 mg (TRG capsule, single nostril), healthy male volunteers, mean
[4] = human, plasma, inhaled or intranasal, intranasal 2.0 mg (TRG capsule, single nostril), healthy male volunteers, mean
[5] = intranasal 0.5 mg (TRG capsule, single nostril), healthy male volunteers, mean
[6] = intranasal 1.0 mg (TRG capsule, single nostril), healthy male volunteers, mean
[7] = intranasal 2.0 mg (TRG capsule, single nostril), healthy male volunteers, mean

AUC(0-inf) [1]: 103 ng·h/mL
AUC(0-t) [1]: 92.4 ng·h/mL
Cmax [1]: 16.6 ng/mL
clearance [1]: 158 mL/min
half-life (human, plasma, 10 ug/kg, intravenous 10 μg/kg (Kytril), healthy male volunteers, mean, N=8, read-out: T1/2 (converted)): 8.52 h
Vd (human, plasma, 10 ug/kg, intravenous 10 μg/kg (Kytril), healthy male volunteers, mean, N=8, read-out: Vss): 108 L
AUC(0-inf) [2]: 52.7 ng·h/mL
AUC(0-t) [2]: 46.9 ng·h/mL
Cmax [2]: 4.95 ng/mL
half-life (human, plasma, inhaled or intranasal, intranasal 0.5 mg (TRG capsule, single nostril), healthy male volunteers, mean, read-out: T1/2 (converted)): 8.9 h
AUC(0-inf) [3]: 119 ng·h/mL
AUC(0-t) [3]: 105 ng·h/mL
Cmax [3]: 13.3 ng/mL
half-life (human, plasma, inhaled or intranasal, intranasal 1.0 mg (TRG capsule, single nostril), healthy male volunteers, mean, read-out: T1/2 (converted)): 9.52 h
AUC(0-inf) [4]: 236 ng·h/mL
AUC(0-t) [4]: 210 ng·h/mL
Cmax [4]: 26.6 ng/mL
half-life (human, plasma, inhaled or intranasal, intranasal 2.0 mg (TRG capsule, single nostril), healthy male volunteers, mean, read-out: T1/2 (converted)): 9.29 h
CL/F [5]: 10.6 L/h
Vz [5]: 131.4 L
CL/F [6]: 9.1 L/h
Vz [6]: 122.6 L
CL/F [7]: 9.2 L/h
Vz [7]: 122.0 L
Tmax (male, human, plasma, inhaled or intranasal, 0.5 mg, intranasal 0.5 mg (TRG capsule, single nostril), healthy male volunteers, mean, read-out: Tmax): 1.34 h
Tmax (male, human, plasma, inhaled or intranasal, 1 mg, intranasal 1.0 mg (TRG capsule, single nostril), healthy male volunteers, mean, read-out: Tmax): 0.34 h
Tmax (male, human, plasma, inhaled or intranasal, 2 mg, intranasal 2.0 mg (TRG capsule, single nostril), healthy male volunteers, mean, read-out: Tmax): 0.63 h
Tmax (male, human, plasma, inhaled or intranasal, 2 mg, intranasal, 0.5, 1.0 and 2.0 mg doses together, read-out: overall mean Tmax): 0.75 h
half-life (male, human, plasma, inhaled or intranasal, after intranasal administration, all dose levels, read-out: overall mean half-life (converted)): 9.23 h
Tmax (male, human, plasma, iv, 10 ug/kg, intravenous 10 μg/kg (Kytril), healthy male volunteers, mean, N=8, read-out: Tmax): 0.18 h
Tmax (male, human, plasma, iv, 10 μg/kg, intravenous rapid infusion 10 μg/kg, all subjects except one, read-out: Tmax): 0.0833 to 0.167 h
SMILES: CN1C2CCCC1CC(NC(=O)c1nn(C)c3ccccc13)C2 (stereo not drawn) [Granisetron, endo-N-(9-methyl-9-azabicyclo[3.3.1]non-3-yl)-1-methyl-1H-indazole-3-carboxamide]
